From article PMC6437697 (Journal of Medicinal Chemistry, 2019)

How the values were obtained:
Experiment in all cases: KINOMEscan
Assay type in all cases: binding
Settings in all cases: read-out: % control activity remaining
CDKL2 = target: T1, CDKL2 (Homo sapiens, UniProt Q92772)
T1 construct: purchased Eurofins DiscoverX KINOMEscan
T1 sequence (Q92772 1-493): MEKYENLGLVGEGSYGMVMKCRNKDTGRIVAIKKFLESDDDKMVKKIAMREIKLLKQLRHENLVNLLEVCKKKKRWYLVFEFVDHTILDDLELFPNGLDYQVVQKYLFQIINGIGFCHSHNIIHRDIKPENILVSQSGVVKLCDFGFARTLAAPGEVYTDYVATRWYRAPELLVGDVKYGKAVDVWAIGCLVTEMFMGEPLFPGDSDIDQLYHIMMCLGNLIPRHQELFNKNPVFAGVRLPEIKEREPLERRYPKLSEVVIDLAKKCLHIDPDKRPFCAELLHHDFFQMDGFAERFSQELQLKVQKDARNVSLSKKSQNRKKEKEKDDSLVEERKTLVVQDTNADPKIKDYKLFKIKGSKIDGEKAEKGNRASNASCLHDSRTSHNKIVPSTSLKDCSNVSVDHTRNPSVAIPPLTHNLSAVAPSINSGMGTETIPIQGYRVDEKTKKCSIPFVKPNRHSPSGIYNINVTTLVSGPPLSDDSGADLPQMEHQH

DMPK = target: T2, DMPK (Homo sapiens, UniProt Q09013)
T2 construct: purchased Eurofins DiscoverX KINOMEscan
T2 sequence (Q09013 1-629): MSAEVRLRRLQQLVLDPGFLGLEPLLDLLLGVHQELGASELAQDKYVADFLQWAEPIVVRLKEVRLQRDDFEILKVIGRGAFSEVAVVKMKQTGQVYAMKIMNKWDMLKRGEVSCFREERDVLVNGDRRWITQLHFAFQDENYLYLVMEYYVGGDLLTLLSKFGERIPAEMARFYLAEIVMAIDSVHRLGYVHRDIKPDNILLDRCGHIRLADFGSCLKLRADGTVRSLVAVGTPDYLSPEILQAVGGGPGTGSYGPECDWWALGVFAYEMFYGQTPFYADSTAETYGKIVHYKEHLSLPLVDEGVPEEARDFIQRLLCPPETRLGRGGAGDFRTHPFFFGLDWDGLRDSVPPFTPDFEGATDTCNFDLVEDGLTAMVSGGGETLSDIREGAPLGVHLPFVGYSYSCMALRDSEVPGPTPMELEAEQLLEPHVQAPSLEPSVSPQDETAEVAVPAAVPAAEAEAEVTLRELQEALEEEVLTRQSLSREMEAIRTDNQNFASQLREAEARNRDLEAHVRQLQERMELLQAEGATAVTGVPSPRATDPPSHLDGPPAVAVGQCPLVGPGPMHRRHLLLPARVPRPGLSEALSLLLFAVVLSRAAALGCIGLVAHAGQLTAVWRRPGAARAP

EPHB3 = target: T3, EPHB3 (Homo sapiens, UniProt P54753)
T3 construct: purchased Eurofins DiscoverX KINOMEscan
T3 sequence (P54753 34-998): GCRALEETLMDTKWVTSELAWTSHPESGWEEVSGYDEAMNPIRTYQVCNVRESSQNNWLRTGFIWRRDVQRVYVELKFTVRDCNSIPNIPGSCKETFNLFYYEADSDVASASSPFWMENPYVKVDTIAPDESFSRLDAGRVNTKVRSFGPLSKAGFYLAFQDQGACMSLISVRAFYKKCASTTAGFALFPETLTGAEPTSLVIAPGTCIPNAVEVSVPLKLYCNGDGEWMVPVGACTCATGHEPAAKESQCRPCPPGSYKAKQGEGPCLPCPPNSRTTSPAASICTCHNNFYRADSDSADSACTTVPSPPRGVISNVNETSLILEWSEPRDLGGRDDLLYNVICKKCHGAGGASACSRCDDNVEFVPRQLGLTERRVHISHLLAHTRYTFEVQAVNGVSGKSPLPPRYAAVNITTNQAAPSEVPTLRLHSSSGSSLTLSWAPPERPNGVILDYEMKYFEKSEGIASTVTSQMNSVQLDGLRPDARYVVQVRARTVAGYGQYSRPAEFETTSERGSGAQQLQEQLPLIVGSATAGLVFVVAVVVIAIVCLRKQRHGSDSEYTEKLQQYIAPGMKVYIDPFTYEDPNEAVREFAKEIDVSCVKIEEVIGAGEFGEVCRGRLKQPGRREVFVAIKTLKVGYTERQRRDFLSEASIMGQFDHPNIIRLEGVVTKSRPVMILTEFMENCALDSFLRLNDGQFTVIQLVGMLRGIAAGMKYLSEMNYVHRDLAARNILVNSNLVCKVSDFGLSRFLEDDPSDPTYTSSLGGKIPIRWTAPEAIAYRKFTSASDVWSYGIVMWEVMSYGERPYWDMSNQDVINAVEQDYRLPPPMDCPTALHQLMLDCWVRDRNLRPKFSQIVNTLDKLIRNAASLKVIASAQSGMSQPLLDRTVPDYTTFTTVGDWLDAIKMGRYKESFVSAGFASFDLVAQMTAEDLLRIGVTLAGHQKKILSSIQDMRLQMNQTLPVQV

KIT(D816H) = target: T4, KIT(D816H) (Homo sapiens, UniProt P10721, D816H)
T4 construct: purchased Eurofins DiscoverX KINOMEscan

MARK2 = target: T5, MARK2 (Homo sapiens, UniProt Q7KZI7)
T5 construct: purchased Eurofins DiscoverX KINOMEscan

[1] = target: T6, RSK2(Kin.Dom.1-N-terminal) (Homo sapiens, UniProt P51812)
T6 construct: RSK2(Kin.Dom.1-N-terminal); purchased Eurofins DiscoverX KINOMEscan

TAK1 = target: T7, TAK1 (Homo sapiens, UniProt O43318)
T7 construct: purchased Eurofins DiscoverX KINOMEscan
T7 sequence (O43318 1-606): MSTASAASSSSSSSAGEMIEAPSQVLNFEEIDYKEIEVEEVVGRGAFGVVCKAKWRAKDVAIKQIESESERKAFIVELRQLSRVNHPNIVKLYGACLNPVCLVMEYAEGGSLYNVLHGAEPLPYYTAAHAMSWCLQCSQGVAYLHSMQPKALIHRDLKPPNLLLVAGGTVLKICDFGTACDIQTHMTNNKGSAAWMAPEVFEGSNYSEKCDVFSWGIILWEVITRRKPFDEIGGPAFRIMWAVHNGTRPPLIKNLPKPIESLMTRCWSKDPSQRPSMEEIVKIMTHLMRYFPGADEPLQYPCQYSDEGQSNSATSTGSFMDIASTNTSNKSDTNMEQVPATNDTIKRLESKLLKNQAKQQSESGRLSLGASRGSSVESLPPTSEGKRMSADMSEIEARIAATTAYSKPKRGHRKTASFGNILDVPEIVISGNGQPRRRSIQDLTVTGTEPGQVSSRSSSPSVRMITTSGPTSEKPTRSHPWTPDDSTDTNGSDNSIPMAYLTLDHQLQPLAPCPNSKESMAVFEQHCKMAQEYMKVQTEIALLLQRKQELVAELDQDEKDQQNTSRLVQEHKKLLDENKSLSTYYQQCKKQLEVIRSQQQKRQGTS

T6 sequence (P51812 68-327 limits assumed): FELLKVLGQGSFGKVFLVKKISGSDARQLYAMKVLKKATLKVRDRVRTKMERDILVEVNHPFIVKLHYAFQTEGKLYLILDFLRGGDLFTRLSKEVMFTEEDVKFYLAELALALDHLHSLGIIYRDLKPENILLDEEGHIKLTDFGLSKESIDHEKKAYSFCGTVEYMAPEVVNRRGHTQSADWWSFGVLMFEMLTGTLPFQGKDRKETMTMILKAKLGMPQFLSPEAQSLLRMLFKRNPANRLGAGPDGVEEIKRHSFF
T5 sequence (Q7KZI7 whole entry): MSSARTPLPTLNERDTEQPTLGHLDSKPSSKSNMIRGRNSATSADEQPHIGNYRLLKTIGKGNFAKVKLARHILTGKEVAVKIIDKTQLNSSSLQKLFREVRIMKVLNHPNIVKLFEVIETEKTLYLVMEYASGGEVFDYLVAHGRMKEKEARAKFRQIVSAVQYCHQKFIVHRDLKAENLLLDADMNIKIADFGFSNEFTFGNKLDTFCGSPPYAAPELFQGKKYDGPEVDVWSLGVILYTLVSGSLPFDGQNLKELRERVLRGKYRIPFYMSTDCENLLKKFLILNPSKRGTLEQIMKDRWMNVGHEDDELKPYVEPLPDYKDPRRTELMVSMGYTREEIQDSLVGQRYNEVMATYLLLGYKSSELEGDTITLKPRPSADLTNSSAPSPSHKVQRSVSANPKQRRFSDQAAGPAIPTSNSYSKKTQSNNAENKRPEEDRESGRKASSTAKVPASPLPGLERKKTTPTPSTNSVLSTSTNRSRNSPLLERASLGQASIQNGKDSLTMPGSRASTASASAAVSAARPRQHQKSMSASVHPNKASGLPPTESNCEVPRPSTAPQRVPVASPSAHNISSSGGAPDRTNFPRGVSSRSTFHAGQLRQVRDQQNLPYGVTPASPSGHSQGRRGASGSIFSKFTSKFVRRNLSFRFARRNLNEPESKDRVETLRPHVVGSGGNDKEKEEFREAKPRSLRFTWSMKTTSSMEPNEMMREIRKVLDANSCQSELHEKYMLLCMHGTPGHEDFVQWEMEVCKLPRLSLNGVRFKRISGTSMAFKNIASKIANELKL
T4 sequence (P10721 26-976 D816H): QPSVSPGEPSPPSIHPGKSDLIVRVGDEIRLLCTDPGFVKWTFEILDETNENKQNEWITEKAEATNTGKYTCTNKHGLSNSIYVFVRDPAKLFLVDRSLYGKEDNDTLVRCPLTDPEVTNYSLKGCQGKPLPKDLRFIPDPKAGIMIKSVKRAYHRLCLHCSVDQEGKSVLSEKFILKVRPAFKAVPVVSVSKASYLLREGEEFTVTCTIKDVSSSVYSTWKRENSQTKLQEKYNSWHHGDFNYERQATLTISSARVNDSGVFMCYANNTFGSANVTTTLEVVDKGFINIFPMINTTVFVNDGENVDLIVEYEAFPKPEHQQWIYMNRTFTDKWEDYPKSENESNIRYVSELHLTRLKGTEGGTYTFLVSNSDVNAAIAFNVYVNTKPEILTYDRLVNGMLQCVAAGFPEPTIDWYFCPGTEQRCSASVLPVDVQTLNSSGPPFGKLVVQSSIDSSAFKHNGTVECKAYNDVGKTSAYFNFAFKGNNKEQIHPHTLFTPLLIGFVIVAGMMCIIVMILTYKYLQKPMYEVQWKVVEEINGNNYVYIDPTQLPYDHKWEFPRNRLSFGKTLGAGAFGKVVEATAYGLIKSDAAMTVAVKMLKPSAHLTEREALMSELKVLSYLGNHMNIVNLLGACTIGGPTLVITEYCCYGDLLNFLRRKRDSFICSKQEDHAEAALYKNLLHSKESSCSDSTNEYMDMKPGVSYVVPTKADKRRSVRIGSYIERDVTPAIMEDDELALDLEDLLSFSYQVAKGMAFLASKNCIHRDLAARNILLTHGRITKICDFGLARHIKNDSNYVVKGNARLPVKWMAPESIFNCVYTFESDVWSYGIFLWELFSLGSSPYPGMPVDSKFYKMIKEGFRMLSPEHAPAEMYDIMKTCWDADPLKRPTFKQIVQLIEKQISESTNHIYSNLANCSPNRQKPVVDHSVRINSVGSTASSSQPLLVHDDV

Compound: Clc1cc(NCC2CC2)c2ncc(-c3ccc4[nH]ncc4c3)n2n1 [compound 2, 6-Chloro-N-(cyclopropylmethyl)-3-(1H-indazol-5-yl)imidazo[1,2-b]pyridazin-8-amine]
- remaining binding at 1 µM (CDKL2): 83%
- remaining binding at 1 µM (DMPK): 84%
- remaining binding at 1 µM (EPHB3): 82%
- remaining binding at 1 µM (KIT(D816H)): 100%
- remaining binding at 1 µM (MARK2): 96%
- remaining binding at 1 µM [1]: 37%
- remaining binding at 1 µM (TAK1): 91%

Compound: O=C(CN1CCOCC1)N[C@H]1CC[C@H](Nc2cc(Cl)nn3c(-c4ccc5[nH]ncc5c4)cnc23)CC1 [compound 26]
- remaining binding at 1 µM (CDKL2): 88%
- remaining binding at 1 µM (DMPK): 99%
- remaining binding at 1 µM (EPHB3): 88%
- remaining binding at 1 µM (KIT(D816H)): 63%
- remaining binding at 1 µM (MARK2): 88%
- remaining binding at 1 µM [1]: 19%
- remaining binding at 1 µM (TAK1): 47%

Compound: CN1CCC(CNc2cc(Cl)nn3c(-c4cc5nc(Nc6ccccc6)[nH]c5cc4F)cnc23)CC1 [compound 31, 6-Chloro-3-(6-fluoro-2-(phenylamino)-1H-benzo[d]imidazol-5-yl)-N-((1-methylpiperidin-4-yl)methyl)imidazo[1,2-b]pyridazin-8-amine]
- remaining binding at 1 µM (CDKL2): 81%
- remaining binding at 1 µM (DMPK): 89%
- remaining binding at 1 µM (EPHB3): 92%
- remaining binding at 1 µM (KIT(D816H)): 96%
- remaining binding at 1 µM (MARK2): 100%
- remaining binding at 1 µM [1]: 100%
- remaining binding at 1 µM (TAK1): 65%
